Experimental data from patent US9573904B2, “Aromatic compound and use thereof” (Sumitomo Chemical Company, Limited, priority 2013, dated 2017).

How the values were obtained:
Format in all cases: in vivo
[1] = system: cucumber anthracnose fungus (Colletotrichum lagenarium); assay: Test Example 9 and Comparative Test Example: cucumber anthracnose control, foliar spray; conditions: 200 ppm spray on cucumber (SAGAMI HANJIRO); inoculated one day after spraying
[2] = system: cucumber target leaf spot fungus (Corynespora cassiicola); assay: Test Example 10: cucumber target leaf spot control, foliar spray; conditions: 200 ppm spray on cucumber (SAGAMI HANJIRO)
[3] = system: wheat rust fungus (Puccinia recondita); assay: Test Example 2: wheat rust control, foliar spray; conditions: 500 ppm spray on wheat (SHIROGANE)

## COC(=O)Oc1ccccc1COc1ccc(C)cc1C [2-[(2,4-dimethylphenoxy)methyl]phenyl=methyl=carbonate]
[1]
  area of lesion on the treated plant relative to that on an untreated plant: ≥ 70%

## CNC(=O)Oc1cccc(C)c1COc1ccc(-c2nn(C)c(Cl)c2C)cc1C [present compound 7]
[2]
  area of lesion on the treated plant relative to that on an untreated plant: ≤ 30%

## CNC(=O)Oc1c(C)cccc1COc1ccc(-c2nn(C)c(Cl)c2C)cc1C [present compound 6]
[3]
  area of lesion on the treated plant relative to that on an untreated plant: ≤ 30%
